Laboratory results published in PubChem BioAssay AID1406 (The Scripps Research Institute Molecular Screening Center, 2008).
Activity calls are given as the source filed them.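 The calls were made as follows: active = STAT1 reporter activators whose half-maximal activating concentration EC50 is 10 µM or lower; inactive = EC50 above 10 µM or no activation.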

System: NIH 3T3 STAT1 luciferase reporter, luminescence
Assay: STAT1 reporter activators, potency curves, dose response, counter-screen for STAT3 activator project, cell-based, NIH 3T3, luciferase luminescence (AID 1406)
[1] = cells stimulated with IFN-gamma at EC80

SMILES	EC50 [1]	EC50
Cc1cc(-c2ccc(Cl)cc2)c(C#N)c(N)n1	> 55.7 µM (inactive)	–
O=C(c1cc[n+]([O-])cc1)N1CCc2c([nH]c3ccccc23)C1c1ccccc1Cl (stereo not drawn)	> 55.7 µM (inactive)	–
Cc1nnc(NC(=O)c2oc3c(ccc4ccccc43)c2C)s1	> 55.7 µM (inactive)	–
COc1ccc(Cl)cc1NC(=O)Nc1ccc(Br)cn1	> 55.7 µM (inactive)	–
CCOC(=O)CC1C(=O)NCCN1C(=O)c1cc2c(=O)n3cccc(C)c3nc2s1 (stereo not drawn)	> 55.7 µM (inactive)	–
COc1ccc(S(=O)(=O)Nc2nc3ccccc3s2)cc1OC	> 55.7 µM (inactive)	–
CC(=O)NCCC(=O)N1CCc2c([nH]c3ccccc23)C1c1cccc(Cl)c1 (stereo not drawn)	> 55.7 µM (inactive)	–
CC(C)CC1c2[nH]c3ccccc3c2CCN1C(=O)CCC(=O)N(C)C (stereo not drawn)	> 55.7 µM (inactive)	–
O=C(Nc1nnc(-c2ccccc2Cl)o1)c1nc2ccccc2s1	> 55.7 µM (inactive)	–
Cc1cc(C)n(-c2nnc3n2N=C(c2c[nH]c4ccccc24)CS3)n1	> 55.7 µM (inactive)	–
O=C(O)C(Cc1c[nH]c2ccccc12)N1Cc2ccccc2C1=O (stereo not drawn)	> 55.7 µM (inactive)	–
COC(=O)NNC(=O)c1ccccc1OC	> 55.7 µM (inactive)	–
COc1cc(NC(=O)c2cc(C3CC3)on2)c(OC)cc1Cl	> 55.7 µM (inactive)	–
Cn1c(CNc2ccccc2O)nc2ccccc21	> 55.7 µM (inactive)	–
O=C(Cc1cnc2ncnn2c1)N1CCc2c([nH]c3ccccc23)C1c1ccccc1F (stereo not drawn)	> 55.7 µM (inactive)	–
COCCSc1ccccc1C(=O)NCCc1ccccc1	> 55.7 µM (inactive)	–
CC(=O)n1cc(Nc2ccc([N+](=O)[O-])cc2)c2ccccc21	> 55.7 µM (inactive)	–
O=C(c1cccnc1)N1CCc2ccccc21	> 55.7 µM (inactive)	–
CN(C)C(=O)COC(=O)/C=C/c1ccccc1[N+](=O)[O-]	> 55.7 µM (inactive)	–
CCC(C(=O)Nc1ccccc1OC)n1c(C(=O)OC)cc2ccsc21 (stereo not drawn)	> 55.7 µM (inactive)	–
CCC(CC)NC(=O)Cc1ccccc1[N+](=O)[O-]	> 55.7 µM (inactive)	–
CCCNC(=O)Cn1c2ccccc2c2nc(=O)cc(C)n21	> 55.7 µM (inactive)	–
CN(C)C(CN1C(=O)C2CC=CCC2C1=O)c1cn(C)c2ccccc12 (stereo not drawn)	> 55.7 µM (inactive)	–
CC(=O)NCCC(=O)N1CCc2c([nH]c3ccccc23)C1c1cccc(C)c1 (stereo not drawn)	> 55.7 µM (inactive)	–
O=C(Cc1c[nH]c2ccccc12)Nc1nnc(C2CC2)s1	> 55.7 µM (inactive)	–
COCCNC(=O)C(=O)NNC(=O)c1ccccc1OC	> 55.7 µM (inactive)	–

SMILES	EC50 [1]	EC50
COc1ccc(CN2CCN(S(=O)(=O)c3ccc(C)cc3)CC2)cc1Br	> 55.7 µM (inactive)	–
Cn1nc(-c2ccc(Cl)cc2)c2cc(C(=O)NCCN3CCOCC3)sc21	> 55.7 µM (inactive)	–
CCCN(CCC)C(=O)Cn1c2ccccc2c2nc(=O)cc(C)n21	> 55.7 µM (inactive)	–
Cn1nc(-c2ccc(Cl)cc2)c2cc(C(=O)NCCCN3CCOCC3)sc21	> 55.7 µM (inactive)	–
CCN1CCN(C(=O)c2cc3c(-c4ccc(Cl)cc4)nn(C)c3s2)CC1	> 55.7 µM (inactive)	–
CCOc1ccc(CN2CCN(Cc3cc4ccccc4[nH]3)CC2CCO)cc1 (stereo not drawn)	> 55.7 µM (inactive)	–
Cc1noc(/C=C/N(C)C)c1S(=O)(=O)N1CCc2ccccc21	> 55.7 µM (inactive)	–
CC(OC(=O)c1cccnc1SCc1cc(=O)n2ccccc2n1)c1ccccn1 (stereo not drawn)	> 55.7 µM (inactive)	–
Cc1c(C#N)c2ccccc2n1CC(=O)O	> 55.7 µM (inactive)	–
Cc1nc2c(n1C1CCCCC1)C(=O)c1ccccc1C2=O	> 55.7 µM (inactive)	–
Cn1nc(-c2ccc(Cl)cc2)c2cc(C(=O)NCC3CCCO3)sc21 (stereo not drawn)	> 55.7 µM (inactive)	–
Cc1cccc2c1NC(=O)/C2=C\C(=O)c1cccs1	> 55.7 µM (inactive)	–
COCCCNC(=O)c1cc2c(-c3ccc(Cl)cc3)nn(C)c2s1	> 55.7 µM (inactive)	–
Cc1nc(/N=C(\N)Nc2ccccc2)nc2ccccc12	> 55.7 µM (inactive)	–
COC(=O)c1sccc1NC(=O)c1cc2c(s1)CCCC2	> 55.7 µM (inactive)	–
O=C(C1CCCN(S(=O)(=O)c2cccc3cccnc23)C1)N1CCc2ccccc21 (stereo not drawn)	> 55.7 µM (inactive)	–
O=C(Cc1c[nH]c2ccccc12)Nc1nc2ccccc2[nH]1	> 55.7 µM (inactive)	–
N#Cc1cn(CC(=O)O)c2ccccc12	> 55.7 µM (inactive)	–
c1ccc2c(c1)CCCN2c1nc2ccccc2n2cnnc12	> 55.7 µM (inactive)	–
COc1cccc2sc(Nc3nnc(-c4ccc(F)cc4)o3)nc12	> 55.7 µM (inactive)	–
COc1ccc(-c2nc3scc(-c4ccccc4)n3n2)cc1	> 55.7 µM (inactive)	–
Cn1nc(-c2ccc(Cl)cc2)c2cc(C(=O)NCCCN3CCCC3)sc21	21.6 µM (inactive)	–
COc1ccc(C2c3[nH]c4ccccc4c3CCN2C(=O)c2ccc(=O)n(C)n2)c(F)c1 (stereo not drawn)	> 55.7 µM (inactive)	–
Cc1nn(-c2ccc(Cl)cc2)c(N)c1C(O)(CSc1nccn1C)C(F)(F)F (stereo not drawn)	> 55.7 µM (inactive)	–
Nc1ccccc1Sc1nc2ccccc2[nH]1	> 55.7 µM (inactive)	–
CN1C(=O)c2ccccc2C(C(=O)NCCCN2CCCC2=O)C1c1c[nH]c2ccccc12 (stereo not drawn)	> 55.7 µM (inactive)	–

SMILES	EC50 [1]	EC50
COc1ccccc1NC(=O)c1[nH]c(C)c(C(C)=O)c1C	> 55.7 µM (inactive)	–
COc1ccc(C2c3[nH]c4ccccc4c3CCN2C(=O)c2cc3ncccn3n2)c(F)c1 (stereo not drawn)	> 55.7 µM (inactive)	–
CCCc1cc(C(=O)Nc2cc(OC)c(Cl)cc2OC)no1	> 55.7 µM (inactive)	–
CN1C(=O)/C(=C\c2cc(Br)cs2)c2ccccc21	> 55.7 µM (inactive)	–
COc1ccccc1C(=O)Nc1cc(Cl)ccc1O	> 55.7 µM (inactive)	–
COC(=O)C(NC=O)C(O)(Cc1ccccc1)C(F)(F)F (stereo not drawn)	> 55.7 µM (inactive)	–
O=C(O)C1CC=CCC1C(=O)Nc1ccc(S(=O)(=O)N2CCCc3ccccc32)cc1 (stereo not drawn)	> 55.7 µM (inactive)	–
Cc1c(C(=O)NCc2cccnc2)oc2ccc(S(=O)(=O)N3CC(C)CC(C)C3)cc12 (stereo not drawn)	> 55.7 µM (inactive)	–
CCOc1ccccc1CN1CCN(Cc2cc3ccccc3[nH]2)CC1CCO (stereo not drawn)	> 55.7 µM (inactive)	–
NC(=O)CSc1c[nH]c2ccccc12	> 55.7 µM (inactive)	–
CCC(=O)NCCSc1c[nH]c2ccccc12	> 55.7 µM (inactive)	–
COCCCNc1nc2c(-c3cccc(C(F)(F)F)c3)nnn2c2ccccc12	> 55.7 µM (inactive)	–
COc1cc(NC(=O)c2cc(C(C)C)on2)c(OC)cc1Cl	> 55.7 µM (inactive)	–
O=C(Nc1ccccc1O)c1csc2c1CCCC2	> 55.7 µM (inactive)	–
CCOC(=O)c1sc(NCc2ccco2)c(-c2nc3ccccc3s2)c1N	> 55.7 µM (inactive)	–
O=C(CCc1nnc(Cc2ccc3c(c2)OCO3)o1)NCc1nc2ccccc2s1	> 55.7 µM (inactive)	–
COCCNC(=O)c1cc2c(-c3ccc(Cl)cc3)nn(C)c2s1	> 55.7 µM (inactive)	–
NNc1ncnc2sc3c(c12)CCC3	> 55.7 µM (inactive)	–
O=C(CCN1CCOCC1)N1CCc2c([nH]c3ccccc23)C1c1cccc(Cl)c1 (stereo not drawn)	> 55.7 µM (inactive)	–
CN1N=C(C(=O)N2CCc3c([nH]c4ccccc34)C2c2c(F)cccc2Cl)CCC1=O (stereo not drawn)	> 55.7 µM (inactive)	–
CCOc1ccccc1-c1n[nH]c(=S)o1	> 55.7 µM (inactive)	–
CC(=O)N1N=C(c2ccccc2O)OC1(C)CC(=O)Nc1ccccc1 (stereo not drawn)	> 55.7 µM (inactive)	–
CC1CCN(C(=O)Cn2c(=O)n(CCc3ccccc3)c(=O)c3ccccc32)CC1	> 55.7 µM (inactive)	–
COc1ccc(Cl)cc1-c1nc(-c2ccc(Br)o2)no1	> 55.7 µM (inactive)	–
CCOc1cc(-c2ccc(N)c(OCC)c2)ccc1N	> 55.7 µM (inactive)	–
COc1ccc(Br)cc1C(=O)Nc1cccc(C)c1	> 55.7 µM (inactive)	–

SMILES	EC50 [1]	EC50
CC1Cc2ccccc2N1Cc1cc(=O)n2ccsc2n1 (stereo not drawn)	> 55.7 µM (inactive)	–
CCN(CC)S(=O)(=O)c1ccc(-c2nnc3sc4cccc(C)c4n23)cc1	> 55.7 µM (inactive)	–
CN1CCN(C(=O)CNc2ccc(C(F)(F)F)cc2[N+](=O)[O-])CC1	> 55.7 µM (inactive)	–
COCc1cc(=O)n2c(-c3ccccc3OC)n[nH]c2n1	> 55.7 µM (inactive)	–
O=C(Cc1cccs1)Nc1ccccn1	> 55.7 µM (inactive)	–
Nc1nnc(Cc2c[nH]c3ccccc23)s1	> 55.7 µM (inactive)	–
Nc1nc(-c2ccc(Cl)cc2)nn1C(=O)c1cccs1	> 55.7 µM (inactive)	–
Cc1ccc(CC(=O)Nc2nc3c(s2)CCCC3)cc1	> 55.7 µM (inactive)	–
COc1ccc(Cl)cc1NC(=O)c1oc(C)nc1C	> 55.7 µM (inactive)	–
CCOC(=O)C1(CC2CCCCO2)CCN(Cc2cc3ccccc3[nH]2)CC1 (stereo not drawn)	> 55.7 µM (inactive)	–
COc1cc(NC(=O)c2cc(-c3ccco3)on2)c(OC)cc1Cl	> 55.7 µM (inactive)	–
O=C(CN1CCNCC1)Nc1ccc(Oc2ccccc2)cc1	> 55.7 µM (inactive)	–
Cc1ccccc1C1c2[nH]c3ccccc3c2CCN1C(=O)c1ccc(=O)n(C)n1 (stereo not drawn)	> 55.7 µM (inactive)	–
COc1ccccc1C(=O)NNC(=S)Nc1ccccc1	> 55.7 µM (inactive)	–
COC(=O)c1n[nH]c2ccccc12	> 55.7 µM (inactive)	–
COCc1cc(C)nc2sc(C(=O)NN)c(-n3cccc3)c12	> 55.7 µM (inactive)	–
CC1=C(C)C(=O)C(N2CCOCC2)=CC1=O	> 55.7 µM (inactive)	–
CCCSc1nnc(Sc2nnnn2-c2ccccc2)s1	> 55.7 µM (inactive)	–
COC(=O)c1sccc1NC(=O)c1ccc(Br)s1	> 55.7 µM (inactive)	–
CC1=NN(c2ccccc2)C(=O)/C1=C/c1c(O)[nH]c(=O)[nH]c1=O	–	> 55.7 µM (inactive)
CC(=O)Nc1c(Cl)n(C(C)=O)c2ccccc12	> 55.7 µM (inactive)	–
CN1CCN(CCCNC(=O)c2cc3c(-c4ccc(Cl)cc4)nn(C)c3s2)CC1	> 55.7 µM (inactive)	–
CCCc1nnc(N2C(=O)c3cccc4cccc(c34)C2=O)s1	> 55.7 µM (inactive)	–
COc1ccccc1-c1nnc(SCC(=O)NC2CCCCC2)o1	> 55.7 µM (inactive)	–
CCOc1ccccc1C1CC(c2cccs2)=NN1S(C)(=O)=O (stereo not drawn)	> 55.7 µM (inactive)	–
